From publication PMC8537458, “Anti-Inflammatory Azaphilones from the Edible Alga-Derived Fungus Penicillium sclerotiorum” (Marine Drugs, 2021)
Entries after “also recorded” stand apart in the source; their conditions may differ.

Legend:
Format in all cases: cell-based
phospho-NFκB p65(S536) = experiment: TNF-α-induced NFκB phosphorylation by immunoblotting; details: 20 ng/mL TNF-α, 30 min, THP-1 cells, n = 3
Description: (§1) THP-1 monocyte cell line that was gifted from Prof. Tsung-Hsien Chang (National Defense Medical Center, Taiwan) was used to examine for TNF-α-induced NFκB phosphorylation; CCD966SK fibroblast cell line that purchased from Bioresource Collection and Research Centre (BCRC; Taiwan) was used to examine for TGF-β-induced Smad2/3 phosphorylation. The procedure of protein preparation, separation, blotting, and detection was conducted referred to previously. The primary antibodies against phospho-NFκB p65(S536), NFκB p65, phospho-Smad 2(S465/467)/Smad 3(S423/425), and Smad 2/3 were purchased from Cell Signaling (USA). The level of Gapdh expression served as an internal control for protein loading. The annotated number represents the quantified level from normalized by both NFκB p65/Smad 2/3 and Gapdh and calculated the fold change phospho-NFκB or phospho-Smad 2/3 to their DMSO vehicle control group by ImageJ software. IκB/IKK inhibitor BAY 11-7082 (Cayman) and TGFβRI inhibitor LY3200882 (Medchemexpres) as positive controls.
(§2) Statistical analysis was conducted via a one-tailed unpaired t-test in comparison compound treating group with the group only treated with TNF-α or TGF-β by Microsoft Excel software. The significance was annotated on plots of the result, * for p < 0.05, ** for p < 0.01, and *** for p < 0.001.

[1] = tested on: NFκB responsive element luciferase reporter in HEK293A cells; experiment: NFκB transcriptional activity reporter assay; details: 20 ng/mL TNF-α, 24 h, n = 6
Description: (§3) Reporter plasmids (Promega, Madison, WI, USA) with luciferase driven by NFκB or SMAD responsive elements were stably established in HEK293A cells and maintained by a puromycin-containing culture medium. Chemiluminescence levels represent the luciferase expression was determined by the ONE-Glo reagent (Promega, USA). The fold change of each group to the DMSO vehicle control group was calculated.
as §2

[2] = tested on: SMAD responsive element luciferase reporter in HEK293A cells; experiment: SMAD transcriptional activity reporter assay; details: 20 ng/mL TGF-β, 24 h
Description: as §3, §2

[3] = MTT cytotoxicity assay, summary over the cell panel; details: human; general density of 1 × 10^4/96-well; most cells / various cancer cells
Description: (§4) The cell lines A549, MCF-7, MDA-MB-231, SH-SY5Y, and WI-38 were purchased from Bioresource Collection and Research Centre (BCRC; Taiwan). […] Chin-Chung Wu (Kaohsiung Medical University, Taiwan), and HCT15 and HCT116 cells were given by Prof. Chen-Yang Shen (Academia Sinica, Taiwan). 1 × 10^3 or 1 × 10^4 cells were seeded in a 96-well one day before compounds treatment.

MTT cytotoxicity assay = details: human, SH-SY5Y neuroblastoma cells
Description: as §4

SH-SY5Y = experiment: MTT cytotoxicity assay; details: among seven cancer and one fibroblast cell lines
Description: as §4

[4] = tested on: phospho-Smad 2(S465/467)/Smad 3(S423/425); experiment: TGF-β-induced Smad2/3 phosphorylation by immunoblotting; details: 20 ng/mL TGF-β, 30 min, CCD966SK fibroblasts, n = 3
Description: as §1, §2

| Compound | TNF-α-induced NFκB phosphorylation (phospho-NFκB p65(S536); 20 μM compound) | NFκB transcriptional activity by reporter assay ([1]; 20 μM compound) | TGF-β-stimulated SMAD transcriptional activity ([2]; 20 μM compound, n = 6) | IC50 at 48 h [3] | TGF-β-induced Smad2/3 phosphorylation ([4]; 20 μM compound) | other results |
| --- | --- | --- | --- | --- | --- | --- |
| Cc1ccc(S(=O)(=O)/C=C/C#N)cc1 [BAY 11-7082, reference compound] | – | – | – | – | – | TNF-α-induced NFκB phosphorylation (phospho-NFκB p65(S536); 10 μM positive control): significantly reduce; NFκB transcriptional activity by reporter assay ([1]; 10 μM positive control): alter |
| CCC(C)C(O)C(C)(O)C=CC1=CC2=C(Cl)C(=O)C(C)(O)C(OC(C)=O)C2CO1 (stereo not drawn) [Compound 1, 8a-epi-hypocrellone A] | inhibit; also recorded: significantly reduce | did not change; also recorded: remains | increased | > 100 µM | – | IC50 at 48 h (MTT cytotoxicity assay; general density 1 × 10^4/96-well (Table 2)): 35.6 µM; IC50 at 48 h (MTT cytotoxicity assay; very low density 1 × 10^3/96-well (Table 3)): 26.8 µM; selective toxicity toward SH-SY5Y (SH-SY5Y): selective toxicity |
| CCC(C)C(O)C(C)(O)C=CC1=CC2=C(Cl)C(=O)C(C)(O)C(OC(C)=O)C2CO1 (stereo not drawn) [Compound 2, 8a-epi-eupenicilazaphilone C] | – | – | promote; also recorded: increased | – | significantly increase; also recorded: promote | – |
| CC[C@H](C)[C@@H](O)[C@](C)(O)/C=C/C1=CC2=C(Cl)C(=O)[C@](C)(O)[C@H](OC(C)=O)[C@H]2CO1 [Compound 3, hypocrellone A] | inhibit; also recorded: significantly reduce | did not change; also recorded: remains | – | > 100 µM | decrease | – |
| CC[C@H](C)[C@@H](O)[C@@](C)(O)/C=C/C1=CC2=C(Cl)C(=O)[C@](C)(O)[C@H](OC(C)=O)[C@H]2CO1 [Compound 4, eupenicilazaphilone C] | – | – | increased | > 100 µM | – | – |
| CC[C@H](C)/C=C(C)/C=C/c1cc(O)c(C)c(O)c1C=O [Compound 5, ((1E,3E)-3,5-dimethylhepta-1,3-dien-1-yl)-2,4-dihydroxy-3-methylbenzaldehyde] | – | – | – | > 100 µM | – | – |
| CC[C@H](C)/C=C(C)/C=C/C1=CC2=C(Cl)C(=O)[C@](C)(OC(C)=O)C(=O)C2=CO1 [Compound 6, sclerotiorin] | – | – | inhibited; also recorded: decreased | > 100 µM | inhibited | – |
| CC[C@H](C)/C=C(C)/C=C/C1=CC2=C(Cl)C(=O)[C@](C)(O)[C@H](OC(C)=O)[C@H]2CO1 [Compound 7, isochromophilone IV] | inhibit; also recorded: significantly reduce | did not change; also recorded: remains | – | > 100 µM | – | – |
| CC(C)(O)c1cc(Nc2cc(Oc3cn(C4CC4)nc3C3CCOCC3)ccn2)ccn1 [LY3200882, reference compound] | – | – | – | – | – | TGF-β-induced Smad2/3 phosphorylation ([4]; 1 μM positive control, listed as TGFβRI inhibitor): trend toward a decrease; TGF-β-stimulated SMAD transcriptional activity ([2]; 1 μM positive control, n = 6, listed as TGFβRI inhibitor): decreased |
| COc1cccc2c1C(=O)c1c(O)c3c(c(O)c1C2=O)C[C@@](O)(C(=O)CO)C[C@@H]3O[C@H]1C[C@H](N)[C@H](O)[C@H](C)O1 [doxorubicin, reference compound] | – | – | – | 0.36 to 3.7 µM | – | – |
